Laboratory results from paper doi:10.1101/2023.10.19.563029v1 (bioRxiv, 2023).
Blank lines part the entries; values can stand above or below the compound they belong to. Where no end group is shown, it is not given here.

Experiments:
[1] = In vivo disappearance of GLP-1; set-up: species or system male C57Bl6/JRj mice; conditions: 800 fmol i.v. tail vein; sitagliptin 10 mg/kg oral 30 min before; Alpco kit; n=5
[2] = In vivo disappearance of GLP-1; set-up: species or system male C57Bl6/JRj mice; conditions: 800 fmol into vena cava, n=4
[3] = estimated, after secretion; ref [2]; cited from earlier work
intact GLP-1 = assay type: in vivo, male C57Bl/6JRj mice
blood glucose = assay: Blood glucose during OGTT with in vivo enzyme inhibition; set-up: species or system male C57Bl/6JRj mice; conditions: valine pyrrolidide only, mean [95% CI], p=0.0023
[4] = in humans; background statement, no reference given; cited from earlier work

calculated half-life, sitagliptin [1]: 1.53 min
initial peak plasma value, sitagliptin only ([2]; sitagliptin 30 min before): ~50 pmol/L
Compound: CC[C@H](C)[C@H](NC(=O)[C@H](Cc1ccccc1)NC(=O)[C@H](CCC(=O)O)NC(=O)[C@H](CCCCN)NC(=O)[C@H](C)NC(=O)[C@H](C)NC(=O)[C@H](CCC(N)=O)NC(=O)CNC(=O)[C@H](CCC(=O)O)NC(=O)[C@H](CC(C)C)NC(=O)[C@H](Cc1ccc(O)cc1)NC(=O)[C@H](CO)NC(=O)[C@H](CO)NC(=O)[C@@H](NC(=O)[C@H](CC(=O)O)NC(=O)[C@H](CO)NC(=O)[C@@H](NC(=O)[C@H](Cc1ccccc1)NC(=O)[C@@H](NC(=O)CNC(=O)[C@H](CCC(=O)O)NC(=O)[C@H](C)NC(=O)[C@@H](N)Cc1c[nH]cn1)[C@@H](C)O)[C@@H](C)O)C(C)C)C(=O)N[C@@H](C)C(=O)N[C@@H](Cc1c[nH]c2ccccc12)C(=O)N[C@@H](CC(C)C)C(=O)N[C@H](C(=O)N[C@@H](CCCCN)C(=O)NCC(=O)N[C@@H](CCCNC(=N)N)C(N)=O)C(C)C [GLP-1(7–36)NH2]
half-life, control ([2]; isoflurane-sedated mice, no inhibitors): 0.79 min
half-life, sitagliptin ([2]; isoflurane-sedated mice, sitagliptin 30 min before): 1.35 min
share of intact GLP-1 that reaches the systemic circulation [3]: 7-8%

Compound: CCOC(=O)[C@H](C)C[C@@H](Cc1ccc(-c2ccccc2)cc1)NC(=O)CCC(=O)O [sacubitril]
difference in AUC of intact GLP-1 versus control (intact GLP-1; sacubitril alone, oral 0.3 mg/kg, 30 min before OGTT, mean [95% CI], p>0.99, n=6): 4.0 pmol/L/min

Compound: N[C@@H](CC(=O)N1CCn2c(nnc2C(F)(F)F)C1)Cc1cc(F)c(F)cc1F [sitagliptin, Sitagliptin]
intact GLP-1 level after the OGTT, at 5 minutes (intact GLP-1; oral sitagliptin 10 mg/kg 30 min before OGTT, Alpco kit, mean ± SD, n=6, SD): 10.9 ± 3.9 pmol/L

Compound: CC(C)[C@H](N)C(=O)N1CCCC1 [valine pyrrolidide]
intact GLP-1 level after the OGTT (intact GLP-1; i.p. valine pyrrolidide 15 mg/kg 30 min before OGTT, Alpco kit, mean ± SD, n=5, SD): 5.1 ± 0.9 pmol/L
intact GLP-1 level after the OGTT, at 10 minutes (intact GLP-1; oral valine pyrrolidide 20.6 mg/kg 30 min before OGTT, Alpco kit, mean ± SD, n=5, SD): 9.2 ± 6.3 pmol/L
suppression in the rise of glucose at 20 minutes (difference versus control) (blood glucose): -6.2 mmol/L

Compound: GLP-1(9–36)NH2 (EGTFTSDVSSYLEGQAAKEFIAWLVKGR-NH2; UniProt P01275 100-127, looked up, fragment)
plasma half-life [4]: about 5 min
